Columns and labels:
[1] = Deionized water-solidifying test (base for solidifying moisture-containing compositions); assay type: physicochemical; conditions: 25° C.; for (Appearance) / Condition: after 20 hours from the dissolution; for Time of solidification completed / Time of solidification started: monitored for 2 hours
Excerpt: After completing the dissolution, each test solution was further stirred for four minutes and then the stirring was stopped. Successively, each test solution was left to stand and a solidification of the test solution by the crystallization of hydrous crystalline maltose was monitored macroscopically for two hours. In the cases of the solidified samples, the time of starting the crystallization and that of completing the solidification were checked. (However, the test solution dissolving 18.8 g of crystal was stopped stirring at three minutes after the dissolution because the crystallization of hydrous crystalline maltose was started immediately.) After monitoring macroscopically for two hours, each vessel containing any one of the sample solutions was closed and further left to stand for 18 hours. Then, the condition (appearance) of the test samples after 20 hours from the dissolution was monitored macroscopically and evaluated by the following three phases: (1) clear solution; (2) clouded solution; and (3) solidified. The samples prepared by using 10.0 g, 11.5 g, 13.3 g, or 18.8 g of the anhydrous crystalline α-maltose used in Example 2, as a substitute of the test samples, were treated by the same procedure as controls. The test was carried out in a room where a temperature was kept at 25° C. The results of each sample after 2 and 20 hours are shown in Table 5 and FIG. 13, and Table 6 and FIG. 14, respectively.

[2] = Powderizing test by admixing deionized water; assay type: physicochemical; conditions: 25° C., listed as Anhydrous crystalline α-maltose (Control)
Protocol: (§1) The usefulness of the crystal was judged by the amount of deionized water added to the limit of keeping the powder form. The form of the powder was evaluated by the following four phases: (1) powder; (2) lump (it keeps a powder form while it comprises lumps); (3) cake; and (4) paste. As a control, the anhydrous crystalline α-maltose used in Example 2 was treated by the same procedure. The test was carried out in a room where the temperature was kept at 25° C. The results of the test and the form of each sample after admixing with 1.25 ml of deionized water are shown in Table 7 and FIG. 15, respectively.

[3] = Powderizing test by admixing dehydrated ethanol; assay type: physicochemical; conditions: listed as Anhydrous crystalline α-maltose (Control)
Protocol: as §1, with “respectively. […] The results of the test and the form of each sample after admixing with 6 ml of dehydrated ethanol are shown in Table 8 and FIG. 16, respectively.” for “respectively.”

[4] = mercury filling method
[5] = Specific surface area by nitrogen adsorption isotherms (BET); assay type: physicochemical; conditions: BET method, listed as anhydrous crystalline α-maltose of Control 2
Protocol: About 3 g of the anhydrous crystalline β-maltose, obtained in Example 1, was dried in the apparatus under a reduced pressure at about 40° C. for about 15 hours as a pretreatment, and then used for the measurement of specific surface area by the nitrogen adsorption isotherms. The result was analyzed by conventional BET (Brunnauer, Emmet, and Teller) method.

[6] = Hygroscopicity test (moisture content under controlled relative humidity); assay type: physicochemical; conditions: 27° C., listed as AC α-Mal (Control 2)
Protocol: Moisture contents of the samples at respective periods were measured based on the change of weight from the start of the test. The moisture contents of the samples at the start of the test were measured by Karl Fischer's method.

[7] = 10.0 g dissolved in 10 g deionized water (50.0%)
[8] = 10.0 g dissolved in 10 g deionized water (calc. conc. 50.0%)
[9] = 11.5 g dissolved in 10 g deionized water (53.5%)
[10] = 11.5 g dissolved in 10 g deionized water (calc. conc. 53.5%)
[11] = 13.3 g dissolved in 10 g deionized water (57.0%)
[12] = 13.3 g dissolved in 10 g deionized water (calc. conc. 57.0%)
[13] = 18.8 g dissolved in 10 g deionized water (calc. conc. 65.0%)
[14] = control values originate from space between crystal particles, not pores

## OC[C@H]1O[C@H](O[C@H]2[C@H](O)[C@@H](O)[C@H](O)O[C@@H]2CO)[C@H](O)[C@@H](O)[C@@H]1O [anhydrous crystalline α-maltose]
[1]; [7]
  (Appearance): (Clear solution)
  Condition: Not solidified
[1]; [8]
  Time of solidification completed: Not solidified
  Time of solidification started: Not solidified
[1]; [9]
  (Appearance): (Clear solution)
  Condition: Not solidified
[1]; [10]
  Time of solidification completed: Not solidified
  Time of solidification started: Not solidified
[1]; [11]
  (Appearance): (Clouded solution)
  Condition: Not solidified
[1]; [12]
  Time of solidification completed: Not solidified
  Time of solidification started: Not solidified
[1]; 18.8 g dissolved in 10 g deionized water (65.0%)
  Condition: Solidified
[1]; [13]
  Time of solidification completed: Not solidified
  Time of solidification started: Not solidified
[2]; 10 g crystal + 0.75 ml water (moisture content 7.0%, w/w)
  Form of the powder after admixing deionized water: Lump form
[2]; 10 g crystal + 1.00 ml water (moisture content 9.1%, w/w)
  Form of the powder after admixing deionized water: Cake form
[2]; 10 g crystal + 1.25 ml water (moisture content 11.1%, w/w)
  Form of the powder after admixing deionized water: Paste form
[3]; 10 g crystal + 3.5 ml ethanol (27.5 v/w %)
  Form of the powder after admixing dehydrated ethanol: Lump form
[3]; 10 g crystal + 4.0 ml ethanol (30.5 v/w %)
  Form of the powder after admixing dehydrated ethanol: Cake form
[3]; 10 g crystal + 4.5 ml ethanol (33.3 v/w %)
  Form of the powder after admixing dehydrated ethanol: Cake form
[3]; 10 g crystal + 5.0 ml ethanol (36.0 v/w %)
  Form of the powder after admixing dehydrated ethanol: Cake form
[3]; 10 g crystal + 5.5 ml ethanol (38.5 v/w %)
  Form of the powder after admixing dehydrated ethanol: Paste form
[3]; 10 g crystal + 6.0 ml ethanol (40.9 v/w %)
  Form of the powder after admixing dehydrated ethanol: Paste form
[4]; initial pressure 15 kPa
  Intrusion volume: (No pore)
[4]; [14]
  Median pore diameter: 13.00 μm
  Mode pore diameter: 20.70 μm
[5]
  Specific surface area: 0.48 m^2/g
[6]; RH 47% (lithium nitrate), 0 hour (start, Karl Fischer)
  Moisture content of samples: 0.74 %, w/w
[6]; RH 47% (lithium nitrate), 2 hours
  Moisture content of samples: 0.70 %, w/w
[6]; RH 47% (lithium nitrate), 4 hours
  Moisture content of samples: 0.70 %, w/w
[6]; RH 47% (lithium nitrate), 24 hours
  Moisture content of samples: 0.65 %, w/w
[6]; RH 47% (lithium nitrate), 96 hours
  Moisture content of samples: 0.71 %, w/w
[6]; RH 47% (lithium nitrate), 192 hours
  Moisture content of samples: 0.70 %, w/w
[6]; RH 58% (sodium bromide), 0 hour (start, Karl Fischer)
  Moisture content of samples: 0.74 %, w/w
[6]; RH 58% (sodium bromide), 2 hours
  Moisture content of samples: 0.74 %, w/w
[6]; RH 58% (sodium bromide), 4 hours
  Moisture content of samples: 0.76 %, w/w
[6]; RH 58% (sodium bromide), 6 hours
  Moisture content of samples: 0.80 %, w/w
[6]; RH 58% (sodium bromide), 8 hours
  Moisture content of samples: 0.79 %, w/w
[6]; RH 58% (sodium bromide), 24 hours
  Moisture content of samples: 0.83 %, w/w
[6]; RH 58% (sodium bromide), 96 hours
  Moisture content of samples: 0.98 %, w/w
[6]; RH 58% (sodium bromide), 192 hours
  Moisture content of samples: 0.91 %, w/w
[6]; RH 75% (sodium chloride), 0 hour (start, Karl Fischer)
  Moisture content of samples: 0.74 %, w/w
[6]; RH 75% (sodium chloride), 2 hours
  Moisture content of samples: 1.18 %, w/w
[6]; RH 75% (sodium chloride), 4 hours
  Moisture content of samples: 2.44 %, w/w
[6]; RH 75% (sodium chloride), 6 hours
  Moisture content of samples: 2.88 %, w/w
[6]; RH 75% (sodium chloride), 8 hours
  Moisture content of samples: 3.14 %, w/w
[6]; RH 75% (sodium chloride), 24 hours
  Moisture content of samples: 3.84 %, w/w
[6]; RH 75% (sodium chloride), 96 hours
  Moisture content of samples: 3.85 %, w/w
[6]; RH 75% (sodium chloride), 192 hours
  Moisture content of samples: 4.49 %, w/w
[6]; RH 90% (barium chloride), 0 hour (start, Karl Fischer)
  Moisture content of samples: 0.74 %, w/w
[6]; RH 90% (barium chloride), 2 hours
  Moisture content of samples: 1.79 %, w/w
[6]; RH 90% (barium chloride), 4 hours
  Moisture content of samples: 4.30 %, w/w
[6]; RH 90% (barium chloride), 6 hours
  Moisture content of samples: 6.29 %, w/w
[6]; RH 90% (barium chloride), 8 hours
  Moisture content of samples: 7.82 %, w/w
[6]; RH 90% (barium chloride), 24 hours
  Moisture content of samples: 15.78 %, w/w
[6]; RH 90% (barium chloride), 96 hours
  Moisture content of samples: 17.77 %, w/w
[6]; RH 90% (barium chloride), 192 hours
  Moisture content of samples: 14.38 %, w/w
